Reference: patent US6541002B1, “Compositions and methods for providing a protein to a virion” (Thomas Jefferson University, priority 1998, dated 2003)
No end group written: not given here.

biological target: HIV-1 Vpr (Human immunodeficiency virus type 1 group M subtype B, UniProt P12520); details: heptapeptide fused to Gal4AD, co-expressed with Vpr-Gal4 DNA-binding domain chimera
From the text: DNA fragments encoding the variable heptapeptide region of the coat protein of individual phage isoforms selected from the library described herein were amplified using PCR from purified phage DNA. Amplified peptide-encoding DNA was cloned in frame between the EcoRI and BglII restriction endonuclease sites of pGADGH for use in yeast two-hybrid system experiments.
The yeast reporter strain, HF7c, which comprises two Gal4-inducible reporter genes, namely HIS3 and LacZ, has been described (BouHamdan et al., 1996, J. Virol. 70:697-704). HF7c cells were transformed with two plasmids, pGB-UDG and pGA-Vpr, using known methods to yield double transformant HF7c cells. […] Cells obtained from these plates were used in a liquid culture assay with yeast reporter strain SFY526 to detect beta-galactosidase activity, as described (BouHamdan et al., 1996, J. Virol. 70:697-704; Bartel et al., 1993, Biotech. 14:920-924). […] was used as the substrate in the assay, and each assay was performed in triplicate.
Intracellular interaction of ten of the heptapeptide regions listed in Table 2 with HIV-1 Vpr was further tested using the yeast two-hybrid system.

| Substance | ability of double transformant HF7c cells to grow on histidine-deficient medium |
| --- | --- |
| GHTWWTF [Pep#7] | better able to grow on histidine-deficient medium than the other double transformants tested |
| KPKWAIV [Pep#2] | unable to grow on histidine-deficient medium |
| KPMWWHF [Pep#9] | better able to grow on histidine-deficient medium than the other double transformants tested |
| LPPWAAF [Pep#6] | better able to grow on histidine-deficient medium than the other double transformants tested |
| SAPWWTF [Pep#5] | better able to grow on histidine-deficient medium than those which expressed chimeric proteins having an amino acid sequence identified in Table 2 as Pep#1 (SEQ ID NO: 16), Pep#8 (SEQ ID NO: 17), or Pep#10 (SEQ ID NO: 18) |
| SWWSFTP [Pep#1] | able to grow on histidine-deficient medium |
| TTWWWQF [Pep#4] | better able to grow on histidine-deficient medium than those which expressed chimeric proteins having an amino acid sequence identified in Table 2 as Pep#1 (SEQ ID NO: 16), Pep#8 (SEQ ID NO: 17), or Pep#10 (SEQ ID NO: 18) |
| WHDFPLV [Pep#3] | better able to grow on histidine-deficient medium than the other double transformants tested |
| WHSFPDS [Pep#10] | able to grow on histidine-deficient medium |
| WHSFPPP [Pep#8] | able to grow on histidine-deficient medium |
